Measured values published in patent US8193191B2, “Urotensin II receptor antagonists” (Janssen Pharmaceutica N.V., priority 2006, dated 2012).
Where two headings read alike, the source gives them in different places.

Tests used:
[1] = target: T1, rat GPR14 (U-II receptor) (Rattus norvegicus, UniProt P49684); assay: Rat UII Calcium Mobilization FLIPR Assay; assay type: cell-based; conditions: average value for the compound tested; read-out: Rat UII FLIPR Average IC50
T1 construct: expressed in transfected cells
T1 sequence (P49684 1-386): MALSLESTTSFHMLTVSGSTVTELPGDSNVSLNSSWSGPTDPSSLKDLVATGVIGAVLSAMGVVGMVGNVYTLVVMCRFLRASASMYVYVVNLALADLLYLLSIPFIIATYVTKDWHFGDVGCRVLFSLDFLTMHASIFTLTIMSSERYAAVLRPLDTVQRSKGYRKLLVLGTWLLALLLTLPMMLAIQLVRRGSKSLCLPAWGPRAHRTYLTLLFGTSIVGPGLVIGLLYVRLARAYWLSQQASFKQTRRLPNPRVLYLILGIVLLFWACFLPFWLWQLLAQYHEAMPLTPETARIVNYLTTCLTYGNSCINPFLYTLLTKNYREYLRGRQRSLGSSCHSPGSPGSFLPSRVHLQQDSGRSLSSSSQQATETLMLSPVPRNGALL
In short: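 CHO cells stably expressing rat U-II receptor, seeded 24 h before assay, were loaded with FLIPR calcium dye in HBSS/20 mM HEPES/0.1% BSA/2.5 mM probenecid, pH 7.4, for 1 h at 37° C. Calcium mobilization then read by FLIPR at 23° C.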

[2] = target: T2, Human UII receptor, 6D9 human rhabdomyosarcoma cells (Homo sapiens, UniProt Q9UKP6); assay: Human UII Calcium Mobilization Assay; assay type: cell-based; conditions: average value, FLIPR TETRA, read-out: Human UII Ca^+ Mobilization Average IC50
T2 construct: 6D9: isolated by dilution subcloning of RMS13 cells, ATCC® Number: CRL-2061; host or cells: 6D9 human rhabdomyosarcoma cells (subclone of RMS13)
T2 sequence (Q9UKP6 1-389): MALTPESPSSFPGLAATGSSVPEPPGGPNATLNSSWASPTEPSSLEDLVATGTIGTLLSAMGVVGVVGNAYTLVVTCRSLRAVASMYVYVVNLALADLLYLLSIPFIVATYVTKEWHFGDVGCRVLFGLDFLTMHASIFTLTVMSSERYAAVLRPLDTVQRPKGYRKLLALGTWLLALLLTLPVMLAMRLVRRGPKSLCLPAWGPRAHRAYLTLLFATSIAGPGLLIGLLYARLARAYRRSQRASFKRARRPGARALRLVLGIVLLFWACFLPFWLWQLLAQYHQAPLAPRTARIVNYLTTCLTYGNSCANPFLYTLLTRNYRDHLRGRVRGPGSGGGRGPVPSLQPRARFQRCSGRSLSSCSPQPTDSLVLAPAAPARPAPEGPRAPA
In short: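 6D9 rhabdomyosarcoma cells loaded 45 min at 37° C with calcium dye (1.25 mM probenecid, 0.01% FBS, HBSS/20 mM HEPES). Antagonist and U-II agonist added at room temperature; FLIPR fluorescence read over 4 min; EC50/IC50 fitted. DMSO ≤0.1% final.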

[3] = target: T3, endogenous human UII receptor (Homo sapiens, UniProt Q9UKP6); assay: Human Radioligand Binding Assay ((^125I)-U-II binding to human skeletal muscle myoblasts)
T3 sequence (Q9UKP6 1-389): T2 sequence (Q9UKP6 1-389)

[4] = read-out: Human UII Average Binding Ki, average value, (^125I)-U-II binding to human skeletal muscle myoblasts (HSMM), 25° C., 3 h

Work on CCN1CCN(c2cccc3c2C(=O)N([C@H](CCCNS(=O)(=O)c2cccs2)c2ccc(OC)c(OC)c2)C3=O)CC1 [Cpd 168, (R)-thiophene-2-sulfonic acid {4-(3,4-dimethoxy-phenyl)-4-[4-(4-ethyl-piperazin-1-yl)-1,3-dioxo-1,3-dihydro-isoindol-2-yl]-butyl}-amide] yielded an IC50 [1] of 4.8 nM, an IC50 [2] of 150 nM and a Ki [3, 4] of 35 nM.
For COc1ccc([C@@H](CCCNS(=O)(=O)c2cccs2)N2C(=O)c3cccc(N4CCN(C5CCCCC5)CC4)c3C2=O)cc1OC [Cpd 196, (R)-thiophene-2-sulfonic acid [4-[4-(4-cyclohexyl-piperazin-1-yl)-1,3-dioxo-1,3-dihydro-isoindol-2-yl]-4-(3,4-dimethoxy-phenyl)-butyl]-amide], the IC50 [1] was 22 nM, the IC50 [2] was 1200 nM and the Ki [3] was 380 nM.
With COc1ccc([C@@H](CCCNC(=O)c2cc(C)on2)N2C(=O)c3cccc(N4CCN([C@H](C)c5ccccc5)CC4)c3C2=O)cc1OC [Cpd 159, (R)-5-methyl-isoxazole-3-carboxylic acid (4-(3,4-dimethoxy-phenyl)-4-{1,3-dioxo-4-[4-(1R)-(1-phenyl-ethyl)-piperazin-1-yl]-1,3-dihydro-isoindol-2-yl}-butyl)-amide] the IC50 [1] was 34 nM, the IC50 [2] was 750 nM and the Ki [3] was 150 nM.
Compound COc1ccc([C@@H](CCCNC(=O)C(C#N)C(C)=O)N2C(=O)c3cccc(N4CCN([C@H](C)c5ccccc5)CC4)c3C2=O)cc1OC (stereo partly drawn) [Cpd 199, (R)-2-cyano-N-(4-(3,4-dimethoxy-phenyl)-4-{1,3-dioxo-4-[4-(1R)-(1-phenyl-ethyl)-piperazin-1-yl]-1,3-dihydro-isoindol-2-yl}-butyl)-3-oxo-butyramide] has an IC50 [1] of 9.3 nM, an IC50 [2] of 160 nM and a Ki [3] of 27 nM.
For COc1ccc([C@@H](CCNC(=O)c2csc(C)n2)N2C(=O)c3cccc(N4CCN([C@H](C)c5ccccc5)CC4)c3C2=O)cc1OC [Cpd 211, (R)-2-methyl-thiazole-4-carboxylic acid (3-(3,4-dimethoxy-phenyl)-3-{1,3-dioxo-4-[4-(1R)-(1-phenyl-ethyl)-piperazin-1-yl]-1,3-dihydro-isoindol-2-yl}-propyl)-amide], the IC50 [1] was 19 nM, the IC50 [2] was 1200 nM and the Ki [3] was 89 nM.
With COc1ccc([C@@H](CCCNS(=O)(=O)O)N2C(=O)c3cccc(N4CCN([C@H](C)c5ccccc5)CC4)c3C2=O)cc1OC [Cpd 129, (R)-(4-(3,4-dimethoxy-phenyl)-4-{1,3-dioxo-4-[4-(1R)-(1-phenyl-ethyl)-piperazin-1-yl]-1,3-dihydro-isoindol-2-yl}-butyl)-sulfamic acid] the IC50 [1] was 9.4 nM, the IC50 [2] was 160 nM and the Ki [3] was 9 nM.
COc1ccc([C@@H](CCCNC(=O)c2cncn2C)N2C(=O)c3cccc(N4CCN([C@H](C)c5ccccc5)CC4)c3C2=O)cc1OC [Cpd 152, (R)-3-methyl-3H-imidazole-4-carboxylic acid (4-(3,4-dimethoxy-phenyl)-4-{1,3-dioxo-4-[4-(1R)-(1-phenyl-ethyl)-piperazin-1-yl]-1,3-dihydro-isoindol-2-yl}-butyl)-amide] was tested, and the IC50 [1] was 17 nM, the IC50 [2] was 660 nM and the Ki [3] was 69 nM.
COC(=O)c1ccc(S(=O)(=O)NCCCC(c2ccc(OC)c(OC)c2)N2C(=O)c3cccc(N4CCN([C@H](C)c5ccccc5)CC4)c3C2=O)o1 (stereo partly drawn) [Cpd 90, 5-(4-(3,4-dimethoxy-phenyl)-4-{1,3-dioxo-4-[4-(1R)-(1-phenyl-ethyl)-piperazin-1-yl]-1,3-dihydro-isoindol-2-yl}-butylsulfamoyl)-furan-2-carboxylic acid methyl ester] gave an IC50 [1] of 130 nM, an IC50 [2] of 560 nM and a Ki [3] of 320 nM.
COc1ccc([C@@H](CCNS(=O)(=O)c2c(C)n[nH]c2C)N2C(=O)c3cccc(N4CCN([C@H](C)c5ccccc5)CC4)c3C2=O)cc1OC [Cpd 223, (R)-3,5-dimethyl-1H-pyrazole-4-sulfonic acid (3-(3,4-dimethoxy-phenyl)-3-{1,3-dioxo-4-[4-(1R)-(1-phenyl-ethyl)-piperazin-1-yl]-1,3-dihydro-isoindol-2-yl}-propyl)-amide] was tested, and the IC50 [1] was 12 nM, the IC50 [2] was 240 nM and the Ki [3] was 120 nM.
COCC(=O)NCCC[C@H](c1ccc(OC)c(OC)c1)N1C(=O)c2cccc(N3CCN([C@H](C)c4ccccc4)CC3)c2C1=O [Cpd 175, (R)-N-(4-(3,4-dimethoxy-phenyl)-4-{1,3-dioxo-4-[4-(1R)-(1-phenyl-ethyl)-piperazin-1-yl]-1,3-dihydro-isoindol-2-yl}-butyl)-2-methoxy-acetamide] was tested, and the IC50 [1] was 6.1 nM, the IC50 [2] was 410 nM and the Ki [3] was 26 nM.
C=CCN1CCN(c2cccc3c2C(=O)N([C@H](CCCNS(=O)(=O)c2cccs2)c2ccc(OC)c(OC)c2)C3=O)CC1 [Cpd 194, (R)-thiophene-2-sulfonic acid [4-[4-(4-allyl-piperazin-1-yl)-1,3-dioxo-1,3-dihydro-isoindol-2-yl]-4-(3,4-dimethoxy-phenyl)-butyl]-amide] gave an IC50 [1] of 10 nM, an IC50 [2] of 990 nM and a Ki [3] of 170 nM.
In the case of COc1ccc([C@@H](CCCNC(=O)c2cccn2C)N2C(=O)c3cccc(N4CCN([C@H](C)c5ccccc5)CC4)c3C2=O)cc1OC [Cpd 147, (R)-1-methyl-1H-pyrrole-2-carboxylic acid (4-(3,4-dimethoxy-phenyl)-4-{1,3-dioxo-4-[4-(1R)-(1-phenyl-ethyl)-piperazin-1-yl]-1,3-dihydro-isoindol-2-yl}-butyl)-amide], the IC50 [1] is reported as 32 nM, the IC50 [2] is reported as 2100 nM and the Ki [3] is reported as 160 nM.
COc1ccc([C@@H](CCCNC(=O)C(F)(F)F)N2C(=O)c3cccc(N4CCN([C@H](C)c5ccccc5)CC4)c3C2=O)cc1OC [Cpd 212, (R)-N-(4-(3,4-dimethoxy-phenyl)-4-{1,3-dioxo-4-[4-(1R)-(1-phenyl-ethyl)-piperazin-1-yl]-1,3-dihydro-isoindol-2-yl}-butyl)-2,2,2-trifluoro-acetamide] gave an IC50 [1] of 19 nM, an IC50 [2] of 790 nM and a Ki [3] of 26 nM.
COc1ccc([C@@H](CCCNC(=O)C2CCOC2)N2C(=O)c3cccc(N4CCN([C@H](C)c5ccccc5)CC4)c3C2=O)cc1OC (stereo partly drawn) [Cpd 173, (R)-tetrahydro-furan-3-carboxylic acid (4-(3,4-dimethoxy-phenyl)-4-{1,3-dioxo-4-[4-(1R)-(1-phenyl-ethyl)-piperazin-1-yl]-1,3-dihydro-isoindol-2-yl}-butyl)-amide] was tested, and the IC50 [1] was 11 nM, the IC50 [2] was 800 nM and the Ki [3] was 66 nM.
In the case of COc1ccc(C(CCCNS(=O)(=O)c2cnoc2C)N2C(=O)c3cccc(N4CCN([C@H](C)c5ccccc5)CC4)c3C2=O)cc1OC (stereo partly drawn) [Cpd 108, 5-methyl-isoxazole-4-sulfonic acid (4-(3,4-dimethoxy-phenyl)-4-{1,3-dioxo-4-[4-(1R)-(1-phenyl-ethyl)-piperazin-1-yl]-1,3-dihydro-isoindol-2-yl}-butyl)-amide], the IC50 [1] is reported as 14 nM, the IC50 [2] is reported as 46 nM and the Ki [3] is reported as 31 nM.
COc1ccc([C@@H](CCCNS(=O)(=O)c2cccs2)N2C(=O)c3cccc(N4CCN([C@H](C)c5ccccc5)CC4)c3C2=O)cc1OC [Cpd 118, (R)-thiophene-2-sulfonic acid (4-(3,4-dimethoxy-phenyl)-4-{1,3-dioxo-4-[4-(1R)-(1-phenyl-ethyl)-piperazin-1-yl]-1,3-dihydro-isoindol-2-yl}-butyl)-amide] showed an IC50 [1] of 29 nM, an IC50 [2] of 240 nM and a Ki [3, 4] of 49 nM.
Compound COc1ccc(C(CCCNC(=O)c2cccs2)N2C(=O)c3cccc(N4CCN([C@H](C)c5ccccc5)CC4)c3C2=O)cc1OC (stereo partly drawn) [Cpd 104, thiophene-2-carboxylic acid (4-(3,4-dimethoxy-phenyl)-4-{1,3-dioxo-4-[4-(1R)-(1-phenyl-ethyl)-piperazin-1-yl]-1,3-dihydro-isoindol-2-yl}-butyl)-amide] has an IC50 [1] of 53 nM, an IC50 [2] of 170 nM and a Ki [3] of 120 nM.
COc1ccc([C@@H](CCCNC(=O)c2c(C)noc2C)N2C(=O)c3cccc(N4CCN([C@H](C)c5ccccc5)CC4)c3C2=O)cc1OC [Cpd 164, (R)-3,5-dimethyl-isoxazole-4-carboxylic acid (4-(3,4-dimethoxy-phenyl)-4-{1,3-dioxo-4-[4-(1R)-(1-phenyl-ethyl)-piperazin-1-yl]-1,3-dihydro-isoindol-2-yl}-butyl)-amide] gave an IC50 [1] of 13 nM, an IC50 [2] of 300 nM and a Ki [3] of 100 nM.
